{
  "source": "patent US20140193463A1",
  "about": "“PEPTIDE FOR INHIBITING DIPEPTIDYL-PEPTIDASE IV” (CHINA MEDICAL UNIVERSITY, priority 2013, published 2014)",
  "key": {"[1]": {"target": "T1, Dipeptidyl-peptidase IV (D7052, from porcine kidney) (Sus scrofa, UniProt P22411)", "T1 construct": "Dipeptidyl-peptidase IV (D7052, from porcine kidney); purchased Sigma-Aldrich D7052; host or cells: porcine kidney (tissue-derived)", "T1 sequence (P22411 whole entry)": "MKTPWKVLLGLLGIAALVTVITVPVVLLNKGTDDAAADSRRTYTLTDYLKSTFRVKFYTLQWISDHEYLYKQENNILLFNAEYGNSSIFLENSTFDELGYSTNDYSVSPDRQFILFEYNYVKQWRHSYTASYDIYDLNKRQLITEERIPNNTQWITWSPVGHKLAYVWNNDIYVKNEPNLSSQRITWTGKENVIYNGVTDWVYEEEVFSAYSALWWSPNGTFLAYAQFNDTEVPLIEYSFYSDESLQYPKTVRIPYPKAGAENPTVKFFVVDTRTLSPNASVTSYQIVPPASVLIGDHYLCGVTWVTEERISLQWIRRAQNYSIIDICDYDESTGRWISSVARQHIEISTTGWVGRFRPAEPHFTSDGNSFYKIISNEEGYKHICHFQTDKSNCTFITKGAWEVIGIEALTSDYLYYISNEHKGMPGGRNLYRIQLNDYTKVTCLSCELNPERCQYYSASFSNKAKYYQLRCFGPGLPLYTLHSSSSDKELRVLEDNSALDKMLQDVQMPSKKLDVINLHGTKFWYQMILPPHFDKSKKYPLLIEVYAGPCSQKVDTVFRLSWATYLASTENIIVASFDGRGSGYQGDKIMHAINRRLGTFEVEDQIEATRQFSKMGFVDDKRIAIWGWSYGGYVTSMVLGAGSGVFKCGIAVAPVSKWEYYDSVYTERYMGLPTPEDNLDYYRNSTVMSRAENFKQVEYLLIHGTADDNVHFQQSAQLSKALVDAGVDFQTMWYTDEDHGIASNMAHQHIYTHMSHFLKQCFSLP", "test": "Determination of DPP-IV-inhibitory activity (Gly-Pro-p-nitroanilide substrate, absorbance 405 nm)", "type": "biochemical", "conditions": "synthetic peptides and diprotin A, present example (FIG. 4A-4C)", "protocol": "Atlantic salmon (Salmo salar) fish skins, processing byproducts recovered from fresh skin-off fillets, were supplied by Albion Fisheries Ltd. (Vancouver, BC, Canada). The fish skins were transferred on ice, vacuum packed, and stored at −25° C. until use. Three food-grade proteolytic enzymes were donated by Neova Technologies Inc. (Abbotsford, BC, Canada). Alcalase 2.4 L FG (from Bacillus licheniformis, 2.4 AU/g) and Flavourzyme 1000 L (from Aspergillus oryzae, 1000 LAPU/g) were products from Novo-zymes North America Inc. (Salem, N.C., […]), whereas bromelain (from pineapple stem, 2000 GDU/g) was manufactured by Ultra Bio-Logics Inc. (Montreal, QC, Canada), Dipeptidyl-peptidase IV (D7052, from porcine kidney), Gly-Prop-nitroanilide hydrochloride, trichloroacetic acid (TCA), L-leucine, and diprotin A were purchased from Sigma-Aldrich (St. Louis, Mo.). Trinitrobenzenesulfonic acid (TNBS) was obtained from Fluka Biochemika Oakville ON, Canada). Other chemicals and reagents used were of analytical grade and commercially available,\nDPP-IV activity determination was performed in 96-well microplates. In order to measure an increment in absorbance at 405 nm, Gly-Pro-p-nitroanilide is used as a DPP-IV substrate. […] The absorbance of the resulting solution was measured at 405 nm with a microplate reader (iEMS reader MF; Labsystems, Helsinki, Finland)."}, "DPP-IV": {"target": "DPP-IV (Homo sapiens, UniProt P27487)", "sequence (P27487 whole entry, species assumed)": "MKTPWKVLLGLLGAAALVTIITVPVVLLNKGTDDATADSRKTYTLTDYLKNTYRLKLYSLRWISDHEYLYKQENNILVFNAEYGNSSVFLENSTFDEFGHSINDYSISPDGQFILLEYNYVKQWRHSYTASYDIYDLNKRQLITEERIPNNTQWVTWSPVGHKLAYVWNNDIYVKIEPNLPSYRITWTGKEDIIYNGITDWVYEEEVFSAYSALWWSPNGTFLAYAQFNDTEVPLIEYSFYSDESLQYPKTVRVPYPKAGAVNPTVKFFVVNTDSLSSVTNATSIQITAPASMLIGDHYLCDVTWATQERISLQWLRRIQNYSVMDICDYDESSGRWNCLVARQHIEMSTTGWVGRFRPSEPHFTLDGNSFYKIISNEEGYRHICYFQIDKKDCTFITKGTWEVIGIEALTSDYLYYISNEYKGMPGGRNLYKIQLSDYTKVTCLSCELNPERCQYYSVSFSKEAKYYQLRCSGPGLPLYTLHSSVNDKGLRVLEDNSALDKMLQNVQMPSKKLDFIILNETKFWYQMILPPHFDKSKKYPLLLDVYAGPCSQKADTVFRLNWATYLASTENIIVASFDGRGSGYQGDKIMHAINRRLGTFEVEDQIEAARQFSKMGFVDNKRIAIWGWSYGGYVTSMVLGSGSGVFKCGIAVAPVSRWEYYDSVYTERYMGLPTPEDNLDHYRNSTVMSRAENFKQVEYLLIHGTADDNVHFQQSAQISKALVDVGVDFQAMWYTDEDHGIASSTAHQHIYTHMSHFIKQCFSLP", "conditions": "previous studies; read-out: IC50 values against DPP-IV; cited from earlier work"}},
  "note": "Residues, ends and D or L forms follow the SMILES beside them.",
  "data": [
    {"compound": "C[C@H](NC(=O)[C@@H]1CCCN1C(=O)CN)C(=O)N[C@@H](CCC(=O)O)C(=O)O", "note": "[Gly-Pro-Ala-Glu] (H-GPAE-OH; N-terminus and C-terminus assumed)", "values": [
      {"measurement": "IC50", "setting": "[1]", "result": 49.6, "unit": "µM"}
    ]},
    {"compound": "C[C@H](NC(=O)CNC(=O)[C@@H]1CCCN1C(=O)CN)C(=O)O", "note": "[Gly-Pro-Gly-Ala] (H-GPGA-OH; N-terminus and C-terminus assumed)", "values": [
      {"measurement": "IC50", "setting": "[1]", "result": 41.9, "unit": "µM"}
    ]},
    {"compound": "Ile-Pro-Ala [peptide prepared from β-lactoglobulin]", "values": [
      {"measurement": "IC50", "setting": "DPP-IV", "result": 49, "unit": "µM"}
    ]},
    {"compound": "VAGTWY [Val-Ala-Gly-Thr-Trp-Tyr, peptide prepared from β-lactoglobulin]", "values": [
      {"measurement": "IC50", "setting": "DPP-IV", "result": 174, "unit": "µM"}
    ]}
  ]
}
